The data set can be described thus: Human HepG2 cell viability assay in 384 well format. As to conditions: HepG2 cells, read-out: Inhibition. In kind it is toxicity, cell-based. More on the design: dose 125 nL, time 70.5 hour; cytotoxicity at 70.5 h: concentration not given beside the values.

As for `Cc1c(CN2CCCCC2)c(O)n(CCO)c(=O)c1C#N`, the cytotoxicity at 70.5 h is -2.11%.
As for `NC(=O)C1CCN(C(=O)CCSCc2ccccc2)CC1`, the cytotoxicity at 70.5 h is -5.5%.
With `Cc1cc(NC2CC3(CCN(Cc4cscn4)C3)C2)ncn1` (configuration not stated), the cytotoxicity at 70.5 h is -6.43%.
In the case of `c1cnnc(N[C@@H]2CC[C@@H]3CN(Cc4ccc5cc[nH]c5c4)C[C@@H]32)c1`, the cytotoxicity at 70.5 h is -9.52%.
The same measure for `COCC(=O)NC[C@]1(O)CN(Cc2ccc3c(c2)OCCO3)C[C@H]1O`: -12.9%.
Turning to `CS(=O)(=O)N[C@@H]1CN(Cc2ccc3ncccc3c2)C[C@H]1O`, the cytotoxicity at 70.5 h was -5.91%.
Turning to `CCn1cc(NC(=O)CN2CCC(Oc3ccccc3C)CC2)c(C)n1`, the cytotoxicity at 70.5 h is -2.26%.
As to `Cc1cc(C)nc(Nc2nccnc2C2CCCN(C(CO)CO)C2)n1` (configuration not stated), the cytotoxicity at 70.5 h was -6.39%.
`NC(=O)CN1CCC(c2noc3cc(F)ccc23)CC1`: the cytotoxicity at 70.5 h amounted to 39.4%.
On to `CC(C)(C)C(=O)N1CCCC1(C(=O)N1CCCC1)c1cnccn1` (configuration not stated), for which the cytotoxicity at 70.5 h was 18.9%.
The same measure for `CCc1nnc(Nc2cc(C)nc(C3CN(C(=O)C(C)C)CCO3)c2)s1` (configuration not stated): 9.87%; for `COc1cccc(F)c1CN1CCC(c2nc(C)cc(C)n2)C1` (configuration not stated): 14.3%; for `Cn1ccnc1CNC(=O)CC1CCCCO1` (configuration not stated): -6.84%.
For `COc1ccccc1OCCc1nnc(NC(=O)C2CC23CCC3)s1` (configuration not stated), the cytotoxicity at 70.5 h is -2.4%.
Take `CC1CCCN(c2ncc(-c3ccccc3F)c(-c3nccn3C)n2)C1` (configuration not stated): the cytotoxicity at 70.5 h is -12.5%.
In the case of `CCCC(=O)Nc1cccc([C@H]2C[C@@H](NC(C)=O)CCO2)c1`, the cytotoxicity at 70.5 h is -12.2%.
On to `CC(=O)N[C@H]1CCO[C@@H](c2cccc(NC(=O)C(C)(C)C)c2)C1`, for which the cytotoxicity at 70.5 h was -7.68%.
`Cc1cc(N2CCOC(c3ccc(N(C)C)cn3)C2)nc(N)n1` (configuration not stated): the cytotoxicity at 70.5 h is -6.31%.
In the case of `Cc1ccc(-c2ccccc2CC2(C(=O)NC(C)C)CCCNC2)cc1` (configuration not stated), the cytotoxicity at 70.5 h was -3.27%.
Turning to `CC(=O)N1CC(C(=O)NC(C)c2cnn(C)c2C)C1` (configuration not stated), the cytotoxicity at 70.5 h was -4.41%.
As to `Cn1ccc(NC(=O)CN2CCN(C3CCCC3)C(=O)C2)n1`, the cytotoxicity at 70.5 h was -4.86%.
Turning to `CC(=O)N1CCC(c2ncc(C(=O)Nc3ccc(F)cc3)c(C)n2)CC1`, the cytotoxicity at 70.5 h amounted to 12.6%.
Regarding `COc1ccc(NC(=O)c2cnc(C3CCN(C)CC3)nc2C)cc1`, the cytotoxicity at 70.5 h is -2.26%.
On to `CN1C[C@H](c2ccccc2)[C@H]2CN(C(=O)Cc3cccc(O)c3)CC[C@H]21`, for which the cytotoxicity at 70.5 h is -2.25%.
In the case of `Cc1ccc(C(=O)NCc2ccnc(C3CCCOC3)n2)s1` (configuration not stated), the cytotoxicity at 70.5 h was determined as 10.5%.
As to `Cc1nccn1[C@@H]1CC[C@@H](N(C)S(=O)(=O)c2ccc(F)cc2)[C@H]1O`, the cytotoxicity at 70.5 h is -3.16%.
Turning to `CC(C)C(=O)NCCc1nc(-c2ccncc2)n[nH]1`, the cytotoxicity at 70.5 h is -2.41%.
In the case of `OCCN1CCCC(c2cccc(-c3ccccc3F)n2)C1` (configuration not stated), the cytotoxicity at 70.5 h is -5.22%.
Regarding `Cn1ccc(C(=O)N2CCCCC2c2cc(CCO)[nH]n2)n1` (configuration not stated), the cytotoxicity at 70.5 h is -1.7%.
`CN1CCCC(c2nccnc2-c2cccc(C(F)(F)F)c2)C1` (configuration not stated): the cytotoxicity at 70.5 h was -0.583%.
The same measure for `Cc1nc(C)n(CCC(=O)NCC2CCCOC2)n1` (configuration not stated): -0.994%; for `CCc1ccccc1Nc1noc2c1CN(C(=O)c1ccn(C)n1)CC2`: 2.97%.
Regarding `COCCC(=O)NCc1ccc(-c2ncncc2C(=O)N(C)C)cc1`, the cytotoxicity at 70.5 h is 6.32%.
For `CN(C)C(=O)c1cncnc1-c1ccc(CNC(=O)C2CCCO2)cc1` (configuration not stated), the cytotoxicity at 70.5 h was determined as 10.6%.
The same measure for `CC(C)C(NC(=O)C1CCCC1)c1cc(O)nc(-c2cccnc2)n1` (configuration not stated): 11%; for `CCn1ncc(CN2CCC(c3ncc(Cl)cc3S(C)(=O)=O)CC2)c1C`: -8.43%; for `C/C(Cl)=C/CNC(=O)[C@H]1CC[C@]2(CC1)CN(C)C(=O)c1ccccc1O2`: -6.71%.
Turning to `COCCC(=O)NCCc1nc2cc(-c3ccc(OC)cc3)ncn2n1`, the cytotoxicity at 70.5 h is -6.53%.
The value for `CCc1c(C)nn2c(O)cc(C3CCN(C(=O)c4ccccn4)C3)nc12` (configuration not stated) was -2.35%; that for `CCc1c(C)nn2c(O)cc(C3CCN(C(=O)c4ccn(C)n4)C3)nc12` (configuration not stated) was 16.4%.
As to `O=C(c1cc(C2CC2)on1)N1C[C@H]2CC[C@](O)(c3ccc(F)cc3)[C@H]2C1`, the cytotoxicity at 70.5 h is -0.34%.
Consider `CN(C)Cc1cnn(-c2ccccc2C(=O)NCCC2CCCN2C)c1` (configuration not stated), for which the cytotoxicity at 70.5 h is -0.0444%.
Regarding `Cc1cn[nH]c1C1COCCN1Cc1ccsc1` (configuration not stated), the cytotoxicity at 70.5 h was -0.803%.
The same measure for `Cc1nc(CN2CCOCC2c2[nH]ncc2C)cs1` (configuration not stated): 1.5%.
As to `CN(C)Cc1cccc(-c2cccnc2C(=O)NCC2CC2)c1`, the cytotoxicity at 70.5 h was -2.77%.
With `Cc1ccsc1C(=O)NCc1ccnc(C2CCCOC2)n1` (configuration not stated), the cytotoxicity at 70.5 h is 13.6%.
`Cc1nccc(CN2Cc3nccn3CC2c2ccccc2)n1` (configuration not stated): the cytotoxicity at 70.5 h was -4.01%.
For `CCc1c(C)nc2cc(C3CCN(Cc4ccncc4C)C3)nn2c1O` (configuration not stated), the cytotoxicity at 70.5 h was -3.92%.
The same measure for `O=C(CCC1CCCO1)N1CCc2nc(-c3cnccn3)nc(O)c2C1` (configuration not stated): -3.93%.
In the case of `Oc1nc(-c2cnccn2)nc2c1CCN(Cc1ccccn1)C2`, the cytotoxicity at 70.5 h was -5.26%.
In the case of `O=C(Cc1ccc(F)cc1)N1CCCC(c2n[nH]c3nccnc23)C1` (configuration not stated), the cytotoxicity at 70.5 h is 11.2%.
The value for `Cn1nc(C2CCCN(Cc3ccc(F)cc3F)C2)c2nccnc21` (configuration not stated) was 0.45%.
The same measure for `CC(C)Oc1cccc(CN2CCC(c3n[nH]c4ncccc34)CC2)c1`: 30.6%.
For `COc1ncccc1C(Cc1ccsc1)NC(=O)Cn1cccnc1=O` (configuration not stated), the cytotoxicity at 70.5 h is 22.1%.
Consider `Cc1c(C(=O)N2CCC(c3nc(C)n4ccsc34)CC2)cnn1C`, for which the cytotoxicity at 70.5 h was -4.61%.
The value for `Cc1cc(-c2cnn(CCNC(=O)c3snnc3C)c2C2CC2)on1` was -2.4%; that for `Cc1cc(-c2cnn(CCNC(=O)Cc3ccccn3)c2C2CC2)on1` was -3.25%; that for `Cc1cccc(CN2CCC(c3nnsc3S(C)(=O)=O)CC2)c1` was -5.38%.
With `CS(=O)(=O)c1snnc1C1CCN(Cc2cccc(O)c2)CC1`, the cytotoxicity at 70.5 h was -7.7%.
`Cc1cc(C)c2cc(CNC(C)C)c3nn(C)c(=O)n3c2c1`: the cytotoxicity at 70.5 h is -1.75%.
The value for `Cc1cc(C)c2cc(CNCc3cccnc3)c3nn(C)c(=O)n3c2c1` was -0.562%.
For the compound `CN(C)Cc1ccnc(C2CCCN2Cc2ccc(F)cn2)n1` (configuration not stated), the cytotoxicity at 70.5 h was found to be 17.2%.
As for `Cc1ocnc1C(=O)N1CC[C@@H](O)[C@@H](O)[C@H](N2CCC(F)(F)CC2)C1`, the cytotoxicity at 70.5 h is -3.42%.
With `COCc1ccc(C(=O)N2CC[C@H](O)[C@@H](n3ccnc3)CC2)cc1`, the cytotoxicity at 70.5 h is -6.05%.
In the case of `NC(=O)C1(CCCc2ccccn2)CCCN(c2ncccn2)C1` (configuration not stated), the cytotoxicity at 70.5 h is -2.53%.
For `COc1ccc(S(=O)(=O)N2CCC(O)(CN(C)C)C2)cc1` (configuration not stated), the cytotoxicity at 70.5 h is -4.76%.
For `CN1CCCC(c2cccc(CCC(=O)NCC3(C)COC3)n2)C1` (configuration not stated), the cytotoxicity at 70.5 h is -1.36%.
The value for `CC(C)N1CCC(Cc2cncc(-c3cccc(C(=O)O)c3)n2)CC1` was 10.8%.
In the case of `Cc1cc(-c2cnn(CCNC(=O)c3cc[nH]n3)c2C2CC2)on1`, the cytotoxicity at 70.5 h was -0.801%.
Turning to `Cn1cc(C(=O)N2CCCC(c3cnccn3)C2)cn1` (configuration not stated), the cytotoxicity at 70.5 h was -4.7%.
The same measure for `Cc1cc(-c2cc(F)ccc2C(=O)O)nc(C2CCCCN2C(C)C)n1` (configuration not stated): -5.96%.
Take `CN(C)CC1(O)CCN(S(=O)(=O)c2ccc(Cl)cc2)C1` (configuration not stated): the cytotoxicity at 70.5 h is 3.29%.
Take `CNc1cccc(C2CCCN(C(=O)c3cscn3)C2)n1` (configuration not stated): the cytotoxicity at 70.5 h is -8.52%.
Regarding `Cc1nc(C(=O)N2CCCC(c3ccc4sc(N)nc4n3)C2)co1` (configuration not stated), the cytotoxicity at 70.5 h was -7.73%.
In the case of `COc1ccc(-c2cc(C3CCN(C(C)=O)CC3)ccn2)cc1`, the cytotoxicity at 70.5 h is -7.99%.
`COc1cccc(CNC(=O)c2ccccc2-n2cnc(CN)c2)c1`: the cytotoxicity at 70.5 h was found to be 17%.
With `CNC(=O)c1ccc(C2CN(C(=O)c3coc(C)n3)CCO2)nc1` (configuration not stated), the cytotoxicity at 70.5 h is -11.4%.
Consider `Cc1csc(Nc2nccnc2C2CCCN2CC(N)=O)n1` (configuration not stated), for which the cytotoxicity at 70.5 h was 11%.
The same measure for `CN(C)S(=O)(=O)N1CCCC(c2cccc(Cc3ccccc3F)n2)C1` (configuration not stated): 11.4%; for `CC(=O)N1CCCC1c1nccnc1Nc1ncccn1` (configuration not stated): 15.9%; for `Cc1csc(Nc2nccnc2C2CCCN2S(C)(=O)=O)n1` (configuration not stated): -12.8%.
Consider `Cc1ccc(C(=O)N2CCCCC2c2[nH]ncc2S(C)(=O)=O)cn1` (configuration not stated), for which the cytotoxicity at 70.5 h is -2.26%.
In the case of `COCCC(=O)N1CCCC1c1csc(Nc2ncccn2)n1` (configuration not stated), the cytotoxicity at 70.5 h was -7.18%.
The same measure for `Nc1ncnc2nc(C3CCCCN3)ccc12` (configuration not stated): -6.59%; for `Cc1ccc(-c2ccccc2CC2CNCCNC2=O)c(C)c1` (configuration not stated): 31.4%.
With `CCc1nc2ccccc2c(=O)n1CC1(O)CCN(C(=O)C2CC2)CC1`, the cytotoxicity at 70.5 h was -11.5%.
`Cc1cc2c(=O)n3c(nc2s1)CCN(Cc1cnc(C)n1C)CC3`: the cytotoxicity at 70.5 h is -4.27%.
Turning to `Cc1cc2c(=O)n3c(nc2s1)CCN(Cc1[nH]cnc1C)CC3`, the cytotoxicity at 70.5 h was -9.2%.
`Cc1cc2c(=O)n3c(nc2s1)CCN(Cc1cncn1C)CC3`: the cytotoxicity at 70.5 h is -7.45%.
In the case of `CCc1nc2ccccc2c(=O)n1CC1(O)CCNCC1`, the cytotoxicity at 70.5 h is -11.1%.
In the case of `Cc1nc(CC(=O)N2CCC(c3nn(C)c4ncccc34)CC2)cs1`, the cytotoxicity at 70.5 h was -9.42%.
The same measure for `Cc1ccc(CN2Cc3ccccc3O[C@]3(CC[C@H](CO)CC3)C2)s1`: 5.08%; for `Cn1nc(C2CCCN(Cc3ccccc3)C2)c2nccnc21` (configuration not stated): 2.89%.
For the compound `Cc1nccc(C2(C)CCCNC2)n1` (configuration not stated), the cytotoxicity at 70.5 h is 16.5%.
The value for `Cc1ccc2c(CC(=O)N(C)CCN(C)C)c(C)[nH]c2c1C` was 2.2%; that for `Cc1nn(C(C)C)c(C)c1CN1CCN(C2CCCCC2)C(=O)C1` was -3.48%.
For `CCc1cccc2c(CC(=O)N(C)CCN(C)C)c(C)[nH]c12`, the cytotoxicity at 70.5 h is -8.74%.

The record behind these values is ChEMBL document CHEMBL3507680, “University of Dundee, Gates Library screen for HepG2 cell viability”.
